# Key:
# BaF3_EGFR LR/CS cells = experiment: Biological Activity Assay D: BaF3 cell proliferation assay, EGFR L858R/C797S mutant (BaF3 LR/CS); assay type: cell-based; details: Ba/F3 EGFR; BaF3_EGFR LR/CS cells, ~72 hours, CellTiter-Glo; read-out: BaF3 LR/CS IC50
# Experimental: (§1) One frozen vial of cells should be thawed into one T25 flask in 10 mL media. Keep the flask upright in the incubator.
# (§2) Method: One frozen vial of cells was thawed into one T25 flask in 10 mL media and the flask was kept upright in the incubator. Cells were split 1:10 every two to three days when cells reached confluency of around 1×10^6 cells/mL. Bravo protocol files were used with Greiner 384-well plates for all steps of compound preparation, cell plating and compound addition. […] 16 μL of DMSO were added (for compounds starting at 20 μM) or 28 μL DMSO (for compounds starting at 5 μM) to 96-well V-bottom polypropylene plate: wells 1A-1H (8 compounds/plate). […] 20 μL DMSO were added to the remainder of the wells (columns 2-12) in the 96-well V-bottom plate. A Bravo liquid handler was used to make 1:3 serial dilutions from columns 1 to 11 (12 remains as DMSO only) to prepare the DMSO dilution plate. 144 μL media were added to each well of a new 96-well V-bottom polypropylene plate to prepare the intermediate dilution plate. A Bravo or 96-head Integra liquid handler was used to add and mix 6 μL of test compound from the DMSO dilution plate to the intermediate dilution plate. (1:25 dilution). Cells were transferred from a flask into a 50 mL conical, vortex gently and the number of cells were counted, with a target cell number of about 1×10^6 cells per mL. The cells were diluted in culture medium in 50 mL conical or T25 flask, and the cell suspension was added to BRAVO reservoir and then use Bravo protocol to plate the appropriate number of cells shown below in 36 μl of medium per well as follows: Ba/F3-WT-EGFR 2000 cells per well of a 384 well plate; Ba/F3-LR/CS-EGFR 2000 cells per well of a 384 well plate; and Ba/F3-d19/CS-EGFR 1500 cells per well of a 384 well plate. An extra 10 mL of dead volume was utilized in each reservoir.
# (§3) Using a Bravo liquid handler, 4 μl of test compound solution was added per well from the intermediate dilution plate to plated cells (1:10 dilution from the intermediate plate, final compound dilution 1:250 and final DMSO concentration per well is 0.4%). Using the 96 BRAVO Head, 25 μl were aspirated from the intermediate dilution plate and 4 μl each were dispensed into 4 wells (square pattern) in the 384-well plate. Any remaining test compound is dispensed into a secondary plate to prevent cross contamination of cells in the intermediate compound plate. After the compounds were added, the plate was shaken at 600 rpm gently for 60 see, and the plates were incubated in a tissue culture incubator, 37° C., 5% CO2, for ˜ 72 hours. After incubation, CTG 2.0 reagent was allowed to equilibrate to room temperature (˜3 hours) and cells to reach room temperature (˜10-15 minutes) and reagent was added to cells (40 μL/well) using a Bravo liquid handler. The plates were shaken to allow proper mixing (˜5 min) and let settle for 10 minutes and were read on Tecan plate reader using the appropriate luminescence method. Data from plate reader was transferred to an excel file and entered directly into Dotmatics using the protocols under EGFR Project/Cell Proliferation/named: “BaF3_EGFRwt_CP”, “BaF3_EGFR_d19/CS_CP”, “BaF3_EGFR_LR/CS_CP”. Curves were fit with a 4-parameter model and IC50s calculated by the Dotmatics software. DMSO wells were averaged to define the high control (100% growth). The average of the highest concentration of the positive control compound (afatinib) was used to define the 0% growth and used to lock the bottom of the curves. The tops of the curves were not fixed.
# BaF3_EGFR d19/CS cells = experiment: Biological Activity Assay D: BaF3 cell proliferation assay, EGFR exon 19 deletion/C797S (BaF3 d19/CS); assay type: cell-based; details: Ba/F3 EGFR; BaF3_EGFR d19/CS cells, ~72 hours, CellTiter-Glo; read-out: BaF3 d19/CS IC50
# Experimental: as §1, §2, §3
# Ba/F3_EGFR WT cells = experiment: Biological Activity Assay D: BaF3 cell proliferation assay, EGFR wild-type (BaF3 WT); assay type: cell-based; details: Ba/F3 EGFR; Ba/F3_EGFR WT cells, ~72 hours, CellTiter-Glo; read-out: BaF3 WT IC50
# Experimental: as §1, §2, §3
# [1] = biological target: recombinant human EGFR exon 19 deletion/C797S double mutant protein (Homo sapiens (Human), UniProt P00533, C797S/DEL746-750); experiment: Biological Activity Assay C: biochemical assay against EGFR exon 19 deletion/C797S protein (EGFR d19/CS)
# Chain of recombinant human EGFR exon 19 deletion/C797S double mutant protein (P00533 other isoform, or with tags, fused parts or gaps C797S/del 1-668/del 746-750 limits assumed): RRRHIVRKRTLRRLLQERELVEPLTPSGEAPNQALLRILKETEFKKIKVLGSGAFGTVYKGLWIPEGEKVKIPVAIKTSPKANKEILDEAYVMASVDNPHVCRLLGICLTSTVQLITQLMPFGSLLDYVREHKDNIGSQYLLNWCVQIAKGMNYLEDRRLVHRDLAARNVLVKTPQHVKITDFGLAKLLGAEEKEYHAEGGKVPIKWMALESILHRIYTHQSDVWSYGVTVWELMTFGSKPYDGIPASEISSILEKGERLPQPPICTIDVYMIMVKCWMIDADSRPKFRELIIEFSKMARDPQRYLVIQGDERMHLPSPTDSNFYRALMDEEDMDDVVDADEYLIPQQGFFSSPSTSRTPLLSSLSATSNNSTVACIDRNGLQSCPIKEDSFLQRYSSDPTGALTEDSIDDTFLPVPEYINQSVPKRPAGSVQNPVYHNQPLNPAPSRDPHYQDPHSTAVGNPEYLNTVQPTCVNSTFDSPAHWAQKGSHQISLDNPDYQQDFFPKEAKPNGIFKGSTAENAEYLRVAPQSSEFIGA
# Experimental: In Row A of a 384-well polypropylene plate, was added 48 μL of DMSO. In wells A1 and A24, were added 12 μL of DMSO. […] To a well in Row A were added 12 μL of each 10 mM test compound stock (100% DMSO). […] The final intermediate dilution plate contained 4×16-point compound serial dilutions in assay buffer. The DMSO concentration was 10%. The intermediate compound dilution plate was transferred to the Bravo and the “5 uL dispense into ARP.pro” protocol was run. To the black low volume assay ready plates, were added 5 μL of 40 uM Phosphosens peptide sensor/4 mM ATP working solution to each well. […] To column 24, was added 10 μL of assay buffer. The final DMSO concentration was 2.5%. […] The plates were sealed with the TopSeal-A Plus plate seals. […] Set for 90 cycles with 120 second interval. […] The slope of each curve was constructed using Dotmatics in each well, and each IC50s was calculated using a 4-parameter fit model.
Structure (SMILES),IC50 (BaF3_EGFR LR/CS cells),IC50 (BaF3_EGFR d19/CS cells),IC50 (Ba/F3_EGFR WT cells),IC50 [1]
"Fc1ccc(-c2nn([C@H]3CCCOC3)cc2-c2ncnc3oc(-c4ccccc4)cc23)cc1 (single isomer, unassigned) [Example 137]",40.5 nM,71.3 nM,2500 nM,0.69 nM
"Fc1ccc(-c2nn([C@H]3CCOC[C@@H]3F)cc2-c2ncnc3oc(-c4ccccc4)cc23)cc1 (single isomer, unassigned) [Example 152]",22.5 nM,88.9 nM,2020 nM,1.33 nM
"Fc1ccc(-c2nn([C@@H]3CCOC[C@H]3F)cc2-c2ncnc3oc(-c4ccccc4)cc23)cc1 (single isomer, unassigned) [Example 153]",22.3 nM,60.4 nM,1800 nM,1.04 nM
"CN1CC[C@@H](n2cc(-c3ncnc4oc(-c5ccccc5)cc34)c(-c3ccc(F)cc3)n2)C1=O (single isomer, unassigned) [Example 166]",19.6 nM,53.8 nM,1350 nM,0.29 nM
"CN1CC[C@H](n2cc(-c3ncnc4oc(-c5ccccc5)cc34)c(-c3ccc(F)cc3)n2)C1=O (single isomer, unassigned) [Example 167]",32.8 nM,162 nM,1640 nM,0.83 nM
"CS(=O)(=O)[C@@H]1CC[C@H](n2cc(-c3ncnc4oc(-c5ccccc5)cc34)c(-c3ccc(F)cc3)n2)C1 (single isomer, unassigned) [Example 192]",196 nM,260 nM,3070 nM,0.97 nM
"CS(=O)(=O)[C@H]1CC[C@@H](n2cc(-c3ncnc4oc(-c5ccccc5)cc34)c(-c3ccc(F)cc3)n2)C1 (single isomer, unassigned) [Example 193]",174 nM,259 nM,3040 nM,1.64 nM
"Fc1ccc(-c2nn([C@H]3CCOC[C@H]3F)cc2-c2ncnc3oc(-c4ccccc4)cc23)cc1 (single isomer, unassigned) [Example 210]",61.1 nM,92.2 nM,1690 nM,0.5 nM
"Fc1ccc(-c2nn([C@@H]3CCOC[C@@H]3F)cc2-c2ncnc3oc(-c4ccccc4)cc23)cc1 (single isomer, unassigned) [Example 211]",18.3 nM,20.1 nM,886 nM,0.35 nM
"C[C@@H]1OCC[C@H]1n1cc(-c2ncnc3oc(-c4ccccc4)cc23)c(-c2ccc(F)cc2)n1 (single isomer, unassigned) [Example 213]",80.9 nM,168 nM,2610 nM,0.51 nM
"C[C@H]1OCC[C@@H]1n1cc(-c2ncnc3oc(-c4ccccc4)cc23)c(-c2ccc(F)cc2)n1 (single isomer, unassigned) [Example 214]",136 nM,303 nM,2510 nM,0.88 nM
"CC1(C)C[C@H](Cn2cc(-c3ncnc4oc(-c5ccccc5)cc34)c(-c3ccc(F)cc3)n2)O1 (single isomer, unassigned) [Example 221]",20.7 nM,51.8 nM,710 nM,0.33 nM
